The values below come from publication PMC7832087 (European journal of medicinal chemistry, 2016).

Data set [1] in a line: Water solubility of salts. The data set is classed as physicochemical.
Data set [2] addresses Aurora B (Homo sapiens, UniProt Q96GD4). Briefly: In vitro kinase assay, Aurora B. It counts as biochemical.
Data set [3] concerns i.p. transplanted P388 leukemia. Particulars: similar treatment schedule, total dose 150 mg/kg for five days; cited from earlier work.
The target in data set [4] is T1, Top1 (Homo sapiens, UniProt P11387).
T1 sequence (P11387 1-765): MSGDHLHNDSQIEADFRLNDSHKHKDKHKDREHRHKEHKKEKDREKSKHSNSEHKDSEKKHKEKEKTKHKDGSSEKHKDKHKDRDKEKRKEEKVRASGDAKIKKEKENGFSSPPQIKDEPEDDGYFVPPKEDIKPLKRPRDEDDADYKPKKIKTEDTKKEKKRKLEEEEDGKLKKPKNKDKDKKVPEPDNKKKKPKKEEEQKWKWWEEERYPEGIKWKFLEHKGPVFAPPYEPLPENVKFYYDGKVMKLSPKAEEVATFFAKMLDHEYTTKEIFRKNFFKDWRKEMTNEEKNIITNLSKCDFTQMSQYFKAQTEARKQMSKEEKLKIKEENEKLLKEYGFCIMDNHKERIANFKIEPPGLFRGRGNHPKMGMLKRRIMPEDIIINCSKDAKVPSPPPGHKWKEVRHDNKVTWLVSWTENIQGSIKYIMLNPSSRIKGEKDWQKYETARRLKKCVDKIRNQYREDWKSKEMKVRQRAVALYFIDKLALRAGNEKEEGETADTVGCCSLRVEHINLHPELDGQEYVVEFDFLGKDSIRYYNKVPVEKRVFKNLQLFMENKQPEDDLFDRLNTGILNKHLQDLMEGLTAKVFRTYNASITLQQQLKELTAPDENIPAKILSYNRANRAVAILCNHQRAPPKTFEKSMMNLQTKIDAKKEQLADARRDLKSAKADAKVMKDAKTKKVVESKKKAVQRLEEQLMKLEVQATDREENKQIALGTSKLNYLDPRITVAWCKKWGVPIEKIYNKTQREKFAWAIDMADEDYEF
Briefly: Top1 mediated DNA cleavage. Particulars: 117 bp oligonucleotide with Top1 cleavage sites. It counts as biochemical.

The target of data set [5] is Top2 (Homo sapiens, UniProt P11388). Briefly: Top2 DNA relaxation assay. It counts as biochemical.
Chain of Top2 (P11388 whole entry, species assumed): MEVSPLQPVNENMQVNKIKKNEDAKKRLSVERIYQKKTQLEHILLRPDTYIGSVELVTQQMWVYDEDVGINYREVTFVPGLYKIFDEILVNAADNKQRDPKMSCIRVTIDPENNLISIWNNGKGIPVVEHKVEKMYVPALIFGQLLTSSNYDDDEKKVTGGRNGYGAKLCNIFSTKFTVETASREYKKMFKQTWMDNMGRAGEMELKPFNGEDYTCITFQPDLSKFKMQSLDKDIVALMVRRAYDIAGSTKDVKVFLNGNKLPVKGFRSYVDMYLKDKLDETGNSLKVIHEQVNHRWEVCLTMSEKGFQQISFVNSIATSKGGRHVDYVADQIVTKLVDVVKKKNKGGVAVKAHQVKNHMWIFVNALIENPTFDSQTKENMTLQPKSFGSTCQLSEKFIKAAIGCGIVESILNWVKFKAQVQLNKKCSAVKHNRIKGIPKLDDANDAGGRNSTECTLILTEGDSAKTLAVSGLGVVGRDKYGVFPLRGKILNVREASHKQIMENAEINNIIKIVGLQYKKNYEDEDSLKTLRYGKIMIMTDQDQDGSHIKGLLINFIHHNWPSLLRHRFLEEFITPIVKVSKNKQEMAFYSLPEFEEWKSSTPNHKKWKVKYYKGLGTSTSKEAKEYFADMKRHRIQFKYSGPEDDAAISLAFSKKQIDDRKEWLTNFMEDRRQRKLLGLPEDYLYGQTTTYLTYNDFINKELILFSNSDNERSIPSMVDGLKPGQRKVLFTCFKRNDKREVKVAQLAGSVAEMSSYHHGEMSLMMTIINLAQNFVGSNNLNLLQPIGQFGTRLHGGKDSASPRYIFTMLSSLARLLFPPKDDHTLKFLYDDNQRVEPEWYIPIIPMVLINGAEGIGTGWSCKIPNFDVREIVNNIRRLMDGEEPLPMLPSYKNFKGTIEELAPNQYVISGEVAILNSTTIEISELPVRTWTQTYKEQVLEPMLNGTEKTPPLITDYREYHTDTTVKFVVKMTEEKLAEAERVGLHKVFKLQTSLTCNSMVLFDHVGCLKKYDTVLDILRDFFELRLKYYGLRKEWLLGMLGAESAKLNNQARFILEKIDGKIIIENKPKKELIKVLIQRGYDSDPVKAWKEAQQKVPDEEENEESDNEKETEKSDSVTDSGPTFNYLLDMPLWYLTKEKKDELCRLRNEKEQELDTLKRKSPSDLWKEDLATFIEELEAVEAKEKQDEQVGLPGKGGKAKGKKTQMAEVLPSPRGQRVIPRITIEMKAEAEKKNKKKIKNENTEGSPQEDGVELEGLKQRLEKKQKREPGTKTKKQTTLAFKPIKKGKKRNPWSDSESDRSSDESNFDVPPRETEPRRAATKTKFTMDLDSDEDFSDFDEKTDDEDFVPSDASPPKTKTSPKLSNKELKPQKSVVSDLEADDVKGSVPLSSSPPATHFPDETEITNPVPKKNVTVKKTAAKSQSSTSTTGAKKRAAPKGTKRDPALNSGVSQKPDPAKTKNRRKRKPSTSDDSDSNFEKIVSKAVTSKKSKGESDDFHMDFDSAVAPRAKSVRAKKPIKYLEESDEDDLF
For data set [6], the system named is K562 and K562/4 cells. Nature of the data set: Intracellular drug accumulation. The data set is classed as cell-based, human. The settings on record: 1 μM, 1 h to 24 h.
For data set [7], the system named is i.p. transplanted P388 leukemia. Nature of the data set: Antitumor efficacy, i.p. transplanted P388 leukemia.
For data set [8], the system named is donor peripheral blood lymphocytes. Briefly: Cytotoxicity for donor lymphocytes. The settings on record: data not shown. It counts as cell-based.
Data set [9] has as its system 364 human protein kinases. Nature of the data set: In vitro kinase panel. The data set is classed as biochemical.
Data set [10] has as its system HCT116 and HCT116p53KO cells. Nature of the data set: Annexin V-FITC / PI staining. The data set is classed as cell-based, human. The settings on record: 1 μM, 24 h.
The test system of data set [11] is Top1. Briefly: Top1 DNA relaxation assay. It counts as biochemical. Particulars: no influence at ≤1 μM, effect at 5 μM and 10 μM.

Chain of Aurora B (Q96GD4 whole entry): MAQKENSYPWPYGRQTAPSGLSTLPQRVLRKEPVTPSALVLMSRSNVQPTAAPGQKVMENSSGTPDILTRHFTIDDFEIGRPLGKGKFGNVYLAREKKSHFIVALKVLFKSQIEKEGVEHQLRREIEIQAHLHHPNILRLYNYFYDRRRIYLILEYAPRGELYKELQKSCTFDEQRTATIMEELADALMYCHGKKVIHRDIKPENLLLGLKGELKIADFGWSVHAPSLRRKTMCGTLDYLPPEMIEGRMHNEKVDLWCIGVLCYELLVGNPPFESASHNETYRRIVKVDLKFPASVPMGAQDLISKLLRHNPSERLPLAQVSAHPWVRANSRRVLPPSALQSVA

Turning to `CS(=O)(=O)O.Cc1oc2c(O)c3c(c(O)c2c1C(=O)N1CCN(C)CC1)C(=O)c1ccccc1C3=O` [Compound 3l, 4,11-Dihydroxy-2-methyl-3-(4-methylpiperazine-1carbonyl)anthra [2,3-b]furan-5,10-dione methanesulfonate], the “water solubility of the salt” value in data set [1] was “water soluble mesylates”.

`O=C1c2ccccc2C(=O)c2c1c(O)c1[nH]cc(CN[C@@H]3CCNC3)c1c2O` [Compound 2] registered a 50% inhibitory concentration (IC50) in data set [2] of 130 to 150 µM. Further, in [3], the T/Cmax is 155%. In [4], the “Top1 mediated specific DNA cleavage” value is on record as “cleaved some but not all these sites”.

In the case of `COc1cc([C@@H]2c3cc4c(cc3[C@@H](O[C@@H]3O[C@@H]5CO[C@@H](C)O[C@H]5[C@H](O)[C@H]3O)[C@H]3COC(=O)[C@H]23)OCO4)cc(OC)c1O` [VP16, etoposide, reference compound], the “Top2 mediated plasmid DNA relaxation” value in [5] is “even at 200 μM of VP16 the DNA remained largely unwound”.

In the case of `CS(=O)(=O)O.Cc1oc2c(O)c3c(c(O)c2c1C(=O)N1CC[C@H](N)C1)C(=O)c1ccccc1C3=O` [Compound 3d, (S)-3-(3-Aminopyrrolidine-1-carbonyl)-4,11-dihydroxy-2methylanthra [2,3-b]furan-5,10-dione methanesulfonate], in data set [6], the “cell associated fluorescence (intracellular accumulation), K562 vs K562/4” value (from here on “cell associated fluorescence … vs K562/4”) was “increased similarly over time”. Further, in data set [7] (Table 3, n = 6, single 50 mg/kg i.p. daily days 1–5 (total 250 mg/kg)), the “T/C, %” value is listed as “death from drug toxicity”. For the same compound, the “toxicity at single dose of 50 mg/kg” value in data set [7] (single dose 50 mg/kg i.p. daily for 5 days (total 250 mg/kg)) was “lethally toxic”. For the same compound, the general drug toxicity result in data set [7] (single doses of 5–40 mg/kg i.p. daily for 5 days, during or after treatment) is reported as “No signs of general drug toxicity”. Further, the “cytotoxicity against donor peripheral blood lymphocytes” value in data set [8] was “no detectable cytotoxicity”. Also, the “Top1 mediated specific DNA cleavage” value in data set [4] is “poorly generated the specific DNA cleavage”. For the same compound, the “human protein kinases attenuated (IC50 < 5 μM) out of 364” value in data set [9] stood at 2.5%. Further, the “apoptotic (Annexin V+/PI−) events” value in [10] is given as “increased percentage of apoptotic”. The “Top2 mediated plasmid DNA relaxation” value in [5] is “even at 40 μM a certain amount of relaxed plasmid DNA was detectable”. Moreover, in data set [11], the “Top1 mediated relaxation of supercoiled plasmid DNA” value is “attenuated Top1 mediated relaxation of the supercoiled plasmid DNA in a dose dependent manner”.

Consider `COc1cc2c3c(n(CCCNCCO)c(=O)c2cc1OC)-c1cc2c(cc1C3=O)OCO2` [MJ–III–65], for which the “Top1 mediated specific DNA cleavage” value in [4] was “pattern of bands characteristic for specific Top1 poisons”.

Consider `COc1cccc2c1C(=O)c1c(O)c3c(c(O)c1C2=O)C[C@@](O)(C(=O)CO)C[C@@H]3O[C@H]1C[C@H](N)[C@H](O)[C@H](C)O1` [Compound 1, doxorubicin, reference compound], for which, in data set [6], the “cell associated fluorescence … vs K562/4” value is “increased to a much lesser extent”.

Consider `CS(=O)(=O)O.Cc1oc2c(O)c3c(c(O)c2c1C(=O)N1CC[C@@H](N)C1)C(=O)c1ccccc1C3=O` [Compound 3c, (R)-3-(3-Aminopyrrolidine-1-carbonyl)-4,11-dihydroxy-2methylanthra [2,3-b]furan-5,10-dione methanesulfonate], for which the “cell associated fluorescence … vs K562/4” value in data set [6] is on record as “increased similarly over time”. Besides, the “cytotoxicity against donor peripheral blood lymphocytes” value in [8] is “no detectable cytotoxicity”. For the same compound, in data set [4], the “Top1 mediated specific DNA cleavage” value was “poorly generated the specific DNA cleavage”. Further, the “Top2 mediated plasmid DNA relaxation” value in [5] is “even at 40 μM a certain amount of relaxed plasmid DNA was detectable”. For the same compound, in data set [11], the “Top1 mediated relaxation of supercoiled plasmid DNA” value is listed as “attenuated Top1 mediated relaxation of the supercoiled plasmid DNA in a dose dependent manner”.

Turning to `CC[C@@]1(O)C(=O)OCc2c1cc1n(c2=O)Cc2cc3ccccc3nc2-1` [CPT, camptothecin], in data set [4], the “Top1 mediated specific DNA cleavage” value is listed as “pattern of bands characteristic for specific Top1 poisons”.

As a reminder, the IC50 is the point on the concentration scale where inhibition reaches its midpoint. Lower therefore signals higher potency.
